According to PMC8795745, “A GSH/CB Dual-Controlled Self-Assembled Nanomedicine for High-Efficacy Doxorubicin-Resistant Breast Cancer Therapy” (Frontiers in Pharmacology, 2022):
Blank lines part the entries; values can stand above or below the molecule they belong to. Bridge positions count the residues as written; N and C are the ends. Square brackets hold non-standard residues; d marks the D form. Peptide text beside a SMILES is read from it. * marks the point of attachment. Acetyl(2-naphthyl) = O=C(Cc1ccc2ccccc2c1)*

What was measured:
CB enzyme (cathepsin B) = target: T1, CB enzyme (cathepsin B) (Homo sapiens, UniProt P07858); experiment: Cathepsin B conversion of linear-1a into linear-1b (LC-MS); type: biochemical; settings: after GSH 8 mM for 12 h, then CB 1 U/mL, 37 °C, PBS pH 7.4; at 20 h; LC-MS peak area; mean, n=3
T1 construct: purchased Sigma-Aldrich (St. Louis, MO, USA)
Description: Molecular self-assembly was performed as described previously.^[1] Briefly, the cyclic-1a was diluted into the phosphate-buffered saline (PBS; pH 7.4) to a final concentration of 1600 µM and incubated at 37 °C. The GSH (8 mM) was then added to the above solution for 12 h at 37 °C to trigger the first step of self-assembly. Afterward, cathepsin B was added to the solution for 12 h at 37 °C to trigger the second step of self-assembly (1 U/mL).
2 mL of the sample prepared by part 3 were adding GSH (8 mM) for 12 h, and then added 1 U/mL of cathepsin B, 100 µL of each sample was collected at each time point and 100 µL methanol was added to terminate the reaction. The method of detection was similar to part 3.1.

MCF-7/DOX cells = experiment: MTT assay, MCF-7/DOX cells; type: cell-based; settings: Homo sapiens, MCF7-DOX, mean ± SD, n=3
Description: (§1) MTT assay was performed as described previously.^[6^] Briefly, the cells (5 × 10^3 cells/well) were seeded in 96-well culture plates (Coring) and incubated overnight. Then cells were exposed to various concentrations of cyclic-1a and incubated at 37 °C for 72 h. After that, MTT stock solution (0.5 mg/mL) was added into each well and cultured for additional 4 h. The MTT treated cells were […] with 150 μL of DMSO. The absorbance in each individual well was measured by using a microplate spectrophotometer at […] (SpectraMax M2e, Molecular Devices Inc. USA).

[1] = Body weight and histological examination of organs in tumor-bearing mice; type: in vivo, BALB/c nude mice; settings: cyclic-1a 20 and 60 mg/kg
Description: Female BALB/c nude mice (6 weeks old) were purchased from the Experimental Animal Center of Yangzhou University. The experiments involving animals were approved by the Animal Ethics Committee of China Pharmaceutical University (Ethic approval number: 2020-07-003). In vivo anticancer activity assay was performed as described previously.^[9^] Briefly, MCF-7/DOX cells (200 μL, 1 × 10^7 cells) were implanted into the right mammary fat pad of nude mice. Once tumors grew to 80-100 mm^3, mice were randomly assigned into four groups and treated intraperitoneally with vehicle, cyclic-1a (20 mg/kg), cyclic-1a (60 mg/kg) or DOX (5 mg/kg) every 3 days for a total of six times. Tumor volume and body weight were measured every 3 days. Tumor volume was calculated using the formula (c × c × d)/2 (c, the smallest diameter; d, the largest diameter).
Immunohistochemical stains against Ki67 and cleaved caspase 3 were performed using immunohistochemistry kit (KeyGen, Nanjing, China) according to the manufacturer’s instructions. Mouse organs (heart, liver, spleen, lung and kidney) tissues were fixed in 4% paraformaldehyde at 4 °C for 48 h, and then embedded in paraffin wax, sectioned (5 µm) and processed for H&E staining. Inverted fluorescence microscope was used to photograph all sections.

MCF-7 cells [2] = type: cell-based
Description: as §1

MCF-7 cells [3] = type: cell-based; remark: listed apart in the source

linear-1a converted into linear-1b (CB enzyme (cathepsin B)): more than 90%
SMILES: N=C(N)NCCC[C@H](NC(=O)CNC(=O)CNC(=O)[C@H](CS)NC(=O)[C@@H](CCCCN)NC(=O)[C@@H](Cc1ccc(O)cc1)NC(=O)[C@@H](Cc1ccccc1)NC(=O)[C@@H](Cc1ccccc1)NC(=O)[C@H](CS)NC(=O)Cc1ccc2ccccc2c1)C(=O)N[C@@H](CCCNC(=N)N)C(=O)NCC(=O)N[C@@H](CCCCN)C(=O)NCC(=O)NCC(=O)N[C@@H](Cc1c[nH]cn1)C(=O)N[C@@H](Cc1c[nH]cn1)C(=O)N[C@@H](Cc1c[nH]cn1)C(=O)N[C@@H](CCCNC(=N)N)C(=O)N[C@@H](CCCNC(=N)N)C(=O)NCC(=O)N[C@@H](CC(=O)O)C(=O)N[C@@H](CO)C(=O)O [linear-1a] ({Acetyl(2-naphthyl)}-C[dF][dF][dY][dK]CGGRRGKGGHHHRRGDS-OH)

IC50 (MCF-7/DOX cells): 83.3 ± 6.13 µM
SMILES: COc1cccc2c1C(=O)c1c(O)c3c(c(O)c1C2=O)C[C@@](O)(C(=O)CO)C[C@@H]3O[C@H]1C[C@H](N)[C@H](O)[C@H](C)O1 [doxorubicin, Doxorubicin]
body weight of mice ([1]; DOX 5 mg/kg, intraperitoneally every 3 days, six times, n=6): gradually increased throughout the experiments except for the DOX-treated group
pathological lesions in organs (H&E) ([1]; heart, liver, spleen, lung and kidney, DOX 5 mg/kg intraperitoneally): lesions of the heart and kidney were detected

SMILES: N=C(N)NCCC[C@H](NC(=O)CNC(=O)CNC(=O)[C@@H]1CSSC[C@H](NC(=O)Cc2ccc3ccccc3c2)C(=O)N[C@H](Cc2ccccc2)C(=O)N[C@H](Cc2ccccc2)C(=O)N[C@H](Cc2ccc(O)cc2)C(=O)N[C@H](CCCCN)C(=O)N1)C(=O)N[C@@H](CCCNC(=N)N)C(=O)NCC(=O)N[C@@H](CCCCN)C(=O)NCC(=O)NCC(=O)N[C@@H](Cc1c[nH]cn1)C(=O)N[C@@H](Cc1c[nH]cn1)C(=O)N[C@@H](Cc1c[nH]cn1)C(=O)N[C@@H](CCCNC(=N)N)C(=O)N[C@@H](CCCNC(=N)N)C(=O)NCC(=O)N[C@@H](CC(=O)O)C(=O)N[C@@H](CO)C(=O)O [cyclic-1a] ({Acetyl(2-naphthyl)}-C[dF][dF][dY][dK]CGGRRGKGGHHHRRGDS-OH; disulfide 1-6)
cytotoxicity to MCF-7 cells (MTT) (MCF-7 cells [2]): no obvious cytotoxicity
cellular uptake ability, MCF-7 cells (MCF-7 cells [3]): strong cellular uptake ability
